What was measured:
Assay in all cases: radiometric filter-binding kinase assay
MKNK1 (human) = MKNK1 (human) (UniProt Q9BUB5)
ERBB4 (human) = ERBB4 (human) (UniProt Q15303)
BRSK1 (human) = BRSK1 (human) (UniProt Q8TDC3); conditions: compound 1.0 µM
SYK (human) = SYK (human) (UniProt P43405)
CAMKK2 (human) = CAMKK2 (human) (UniProt Q96RR4)
MAPK13 (human) = MAPK13 (human) (UniProt O15264)
MAPK12 (human) = MAPK12 (human) (UniProt P53778)
IGF1R (human) = IGF1R (human) (UniProt P08069)
EEF2K (human) = EEF2K (human) (UniProt O00418)
MAPK3 (human) = MAPK3 (human) (UniProt P27361)
HIPK3 (human) = HIPK3 (human) (UniProt Q9H422)
PAK7 (human) = PAK7 (human) (UniProt Q9P286); conditions: compound 10.0 µM
PHKG1 (human) = PHKG1 (human) (UniProt Q16816)
[1] = tested on: SGK1 (human), O00141 [S422D]
DAPK1 (human) = DAPK1 (human) (UniProt P53355)
FGFR1 (human) = FGFR1 (human) (UniProt P11362); conditions: compound 10.0 µM
PRKAA1 or PRKAA2 (rat) = conditions: accession and sequence are those of the human protein
MAPKAPK2 (human) = MAPKAPK2 (human) (UniProt P49137)
MAP2K2 (human) = MAP2K2 (human) (UniProt P36507)
STK3 (human) = STK3 (human) (UniProt Q13188)
MAPK9 (human) = MAPK9 (human) (UniProt P45984)
PIM3 (human) = PIM3 (human) (UniProt Q86V86); conditions: compound 10.0 µM
MELK (human) = MELK (human) (UniProt Q14680)
PIM1 (human) = PIM1 (human) (UniProt P11309); conditions: compound 10.0 µM
MARK1 (human) = MARK1 (human) (UniProt Q9P0L2)
GSK3B (human) = GSK3B (human) (UniProt P49841)
IKBKE (human) = IKBKE (human) (UniProt Q14164)
MAP3K5 (human) = MAP3K5 (human) (UniProt Q99683)
DYRK1A (human) = DYRK1A (human) (UniProt Q13627)
MAP2K6 (human) = MAP2K6 (human) (UniProt P52564)
PRKACA (human) = PRKACA (human) (UniProt P17612)
BRSK2 (human) = BRSK2 (human) (UniProt Q8IWQ3)
EPHB4 (human) = EPHB4 (human) (UniProt P54760)
PIM2 (human) = PIM2 (human) (UniProt Q9P1W9); conditions: compound 10.0 µM
PRKCZ (human) = PRKCZ (human) (UniProt Q05513); conditions: compound 10.0 µM

Chain of BRSK2 (human) (Q8IWQ3 whole entry, looked up): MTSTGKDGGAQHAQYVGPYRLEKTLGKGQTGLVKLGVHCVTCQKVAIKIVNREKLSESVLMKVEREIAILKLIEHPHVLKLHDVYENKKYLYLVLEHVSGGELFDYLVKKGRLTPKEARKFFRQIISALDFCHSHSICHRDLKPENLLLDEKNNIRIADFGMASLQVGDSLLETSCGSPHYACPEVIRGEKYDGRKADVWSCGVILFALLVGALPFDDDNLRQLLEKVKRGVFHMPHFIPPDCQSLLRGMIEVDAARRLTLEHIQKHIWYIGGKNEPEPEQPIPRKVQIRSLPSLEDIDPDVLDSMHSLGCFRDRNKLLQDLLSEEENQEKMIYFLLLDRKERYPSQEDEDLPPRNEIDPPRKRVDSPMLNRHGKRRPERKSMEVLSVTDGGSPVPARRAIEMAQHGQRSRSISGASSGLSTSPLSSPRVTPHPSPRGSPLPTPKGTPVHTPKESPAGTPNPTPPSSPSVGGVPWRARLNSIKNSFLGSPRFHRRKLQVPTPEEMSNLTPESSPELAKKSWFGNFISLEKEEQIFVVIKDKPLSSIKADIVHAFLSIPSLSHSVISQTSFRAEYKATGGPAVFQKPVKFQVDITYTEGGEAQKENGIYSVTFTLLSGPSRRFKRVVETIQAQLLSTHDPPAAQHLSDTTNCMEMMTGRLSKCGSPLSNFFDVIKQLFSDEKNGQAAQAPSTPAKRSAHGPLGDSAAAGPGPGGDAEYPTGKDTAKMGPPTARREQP
Chain of MAP3K5 (human) (Q99683 whole entry, looked up): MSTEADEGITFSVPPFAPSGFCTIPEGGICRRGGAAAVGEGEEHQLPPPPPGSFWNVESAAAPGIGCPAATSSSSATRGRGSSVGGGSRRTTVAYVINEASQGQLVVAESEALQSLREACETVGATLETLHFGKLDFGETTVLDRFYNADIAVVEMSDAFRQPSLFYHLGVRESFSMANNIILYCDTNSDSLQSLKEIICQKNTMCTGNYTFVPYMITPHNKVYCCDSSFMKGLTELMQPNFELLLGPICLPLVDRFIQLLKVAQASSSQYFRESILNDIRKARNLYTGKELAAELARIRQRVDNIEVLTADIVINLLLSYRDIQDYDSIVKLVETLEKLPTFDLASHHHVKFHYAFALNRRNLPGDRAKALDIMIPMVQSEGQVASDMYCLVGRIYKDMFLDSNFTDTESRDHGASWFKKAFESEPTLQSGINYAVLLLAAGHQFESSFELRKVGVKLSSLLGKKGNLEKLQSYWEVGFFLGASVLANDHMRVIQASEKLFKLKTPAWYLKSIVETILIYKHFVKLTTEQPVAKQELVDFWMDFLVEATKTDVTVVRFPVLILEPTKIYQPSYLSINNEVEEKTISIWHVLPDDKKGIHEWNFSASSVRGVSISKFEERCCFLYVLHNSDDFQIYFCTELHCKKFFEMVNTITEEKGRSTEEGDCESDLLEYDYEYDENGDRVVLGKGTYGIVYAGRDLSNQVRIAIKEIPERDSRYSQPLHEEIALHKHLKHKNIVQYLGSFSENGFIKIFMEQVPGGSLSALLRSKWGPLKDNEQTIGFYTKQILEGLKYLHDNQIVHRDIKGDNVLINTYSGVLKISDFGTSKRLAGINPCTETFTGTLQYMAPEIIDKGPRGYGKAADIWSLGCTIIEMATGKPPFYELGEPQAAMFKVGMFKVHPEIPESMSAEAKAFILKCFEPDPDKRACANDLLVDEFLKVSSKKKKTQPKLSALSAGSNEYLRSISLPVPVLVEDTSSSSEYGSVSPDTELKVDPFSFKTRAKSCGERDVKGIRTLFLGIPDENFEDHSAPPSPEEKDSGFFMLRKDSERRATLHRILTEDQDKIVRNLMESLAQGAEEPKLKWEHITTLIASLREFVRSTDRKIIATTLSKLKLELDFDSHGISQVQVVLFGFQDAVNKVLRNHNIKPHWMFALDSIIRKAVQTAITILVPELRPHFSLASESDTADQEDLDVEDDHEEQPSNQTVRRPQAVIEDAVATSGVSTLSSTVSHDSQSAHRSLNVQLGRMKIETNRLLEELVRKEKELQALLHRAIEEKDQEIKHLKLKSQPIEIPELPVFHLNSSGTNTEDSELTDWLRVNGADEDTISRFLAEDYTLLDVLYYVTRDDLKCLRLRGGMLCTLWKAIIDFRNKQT
Chain of MAPK3 (human) (P27361 whole entry, looked up): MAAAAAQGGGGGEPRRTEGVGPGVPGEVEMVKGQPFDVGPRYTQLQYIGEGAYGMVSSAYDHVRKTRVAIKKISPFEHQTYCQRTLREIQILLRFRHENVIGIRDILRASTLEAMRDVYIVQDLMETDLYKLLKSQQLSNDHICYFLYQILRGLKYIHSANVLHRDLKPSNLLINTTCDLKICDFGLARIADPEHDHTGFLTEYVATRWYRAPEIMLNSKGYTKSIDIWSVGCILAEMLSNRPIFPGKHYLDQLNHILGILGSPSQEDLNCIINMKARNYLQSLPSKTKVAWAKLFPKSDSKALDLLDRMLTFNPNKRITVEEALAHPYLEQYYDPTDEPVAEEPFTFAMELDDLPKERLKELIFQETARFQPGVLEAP
Chain of IKBKE (human) (Q14164 whole entry, looked up): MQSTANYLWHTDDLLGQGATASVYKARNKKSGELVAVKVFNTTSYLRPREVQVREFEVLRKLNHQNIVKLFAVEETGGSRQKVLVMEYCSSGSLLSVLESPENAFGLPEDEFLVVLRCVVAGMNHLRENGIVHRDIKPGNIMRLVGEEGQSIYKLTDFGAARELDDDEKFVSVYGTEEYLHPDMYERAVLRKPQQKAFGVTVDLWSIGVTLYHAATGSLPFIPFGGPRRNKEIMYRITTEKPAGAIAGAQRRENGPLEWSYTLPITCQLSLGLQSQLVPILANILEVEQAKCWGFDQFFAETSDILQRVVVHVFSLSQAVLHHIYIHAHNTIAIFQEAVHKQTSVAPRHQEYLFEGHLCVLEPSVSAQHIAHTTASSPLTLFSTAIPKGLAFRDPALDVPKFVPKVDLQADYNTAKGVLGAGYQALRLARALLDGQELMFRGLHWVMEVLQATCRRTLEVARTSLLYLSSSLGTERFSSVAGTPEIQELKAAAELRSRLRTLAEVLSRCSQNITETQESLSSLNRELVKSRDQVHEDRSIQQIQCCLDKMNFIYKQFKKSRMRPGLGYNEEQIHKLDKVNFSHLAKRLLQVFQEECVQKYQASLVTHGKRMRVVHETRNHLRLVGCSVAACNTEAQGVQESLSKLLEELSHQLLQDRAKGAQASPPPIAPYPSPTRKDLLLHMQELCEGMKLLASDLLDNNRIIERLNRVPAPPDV
Chain of HIPK3 (human) (Q9H422 whole entry, looked up): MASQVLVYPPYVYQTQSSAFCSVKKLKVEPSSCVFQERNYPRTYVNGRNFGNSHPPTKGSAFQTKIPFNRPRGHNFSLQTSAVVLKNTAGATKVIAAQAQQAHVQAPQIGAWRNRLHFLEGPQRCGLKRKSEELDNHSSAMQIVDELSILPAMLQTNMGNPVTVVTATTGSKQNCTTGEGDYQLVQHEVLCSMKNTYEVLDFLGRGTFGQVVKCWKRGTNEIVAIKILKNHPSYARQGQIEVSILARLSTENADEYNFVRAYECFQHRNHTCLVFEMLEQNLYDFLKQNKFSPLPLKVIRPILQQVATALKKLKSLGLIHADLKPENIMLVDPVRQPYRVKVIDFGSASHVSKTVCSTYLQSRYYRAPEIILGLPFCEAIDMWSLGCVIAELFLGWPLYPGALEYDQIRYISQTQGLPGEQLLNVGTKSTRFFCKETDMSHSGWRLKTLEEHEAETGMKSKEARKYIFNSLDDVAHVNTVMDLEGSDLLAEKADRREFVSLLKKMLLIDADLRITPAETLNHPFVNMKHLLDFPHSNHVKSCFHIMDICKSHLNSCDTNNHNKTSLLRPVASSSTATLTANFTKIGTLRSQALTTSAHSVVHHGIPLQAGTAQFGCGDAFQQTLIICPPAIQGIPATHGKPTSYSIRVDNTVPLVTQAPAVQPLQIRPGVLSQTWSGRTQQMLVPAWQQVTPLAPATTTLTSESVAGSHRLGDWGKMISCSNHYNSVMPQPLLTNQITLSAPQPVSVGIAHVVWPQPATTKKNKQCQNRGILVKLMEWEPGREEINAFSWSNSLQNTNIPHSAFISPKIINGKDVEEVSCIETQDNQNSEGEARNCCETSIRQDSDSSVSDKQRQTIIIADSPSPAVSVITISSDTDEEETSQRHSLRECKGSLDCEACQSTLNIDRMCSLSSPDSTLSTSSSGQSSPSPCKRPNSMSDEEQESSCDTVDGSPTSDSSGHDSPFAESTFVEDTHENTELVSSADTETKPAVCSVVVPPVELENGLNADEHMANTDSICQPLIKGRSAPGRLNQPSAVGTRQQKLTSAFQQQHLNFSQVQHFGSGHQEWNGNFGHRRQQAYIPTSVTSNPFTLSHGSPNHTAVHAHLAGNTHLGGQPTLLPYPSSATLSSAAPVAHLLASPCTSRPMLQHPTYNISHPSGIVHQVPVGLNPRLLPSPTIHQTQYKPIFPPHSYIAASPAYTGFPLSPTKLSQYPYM
Chain of MAPK12 (human) (P53778 whole entry, looked up): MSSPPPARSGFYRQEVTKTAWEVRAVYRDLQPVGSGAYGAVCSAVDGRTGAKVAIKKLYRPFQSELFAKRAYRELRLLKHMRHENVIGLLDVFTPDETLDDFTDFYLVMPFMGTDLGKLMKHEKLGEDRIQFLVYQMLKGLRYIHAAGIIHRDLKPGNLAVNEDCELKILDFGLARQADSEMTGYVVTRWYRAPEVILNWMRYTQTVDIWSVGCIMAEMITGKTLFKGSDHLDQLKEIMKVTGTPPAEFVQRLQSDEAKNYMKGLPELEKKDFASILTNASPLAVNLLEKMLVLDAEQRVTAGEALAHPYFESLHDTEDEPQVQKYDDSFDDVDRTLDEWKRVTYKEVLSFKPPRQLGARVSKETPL

residual activity (MKNK1 (human); compound 1.0 µM): 104%
residual activity (MKNK1 (human); compound 10.0 µM): 92%
residual activity (ERBB4 (human); compound 1.0 µM): 110%
residual activity (ERBB4 (human); compound 10.0 µM): 116%
residual activity (BRSK1 (human)): 89%
residual activity (SYK (human); compound 1.0 µM): 92%
residual activity (SYK (human); compound 10.0 µM): 104%
residual activity (CAMKK2 (human); compound 1.0 µM): 96%
residual activity (CAMKK2 (human); compound 10.0 µM): 108%
residual activity (MAPK13 (human); compound 1.0 µM): 92%
residual activity (MAPK13 (human); compound 10.0 µM): 90%
residual activity (MAPK12 (human); compound 1.0 µM): 101%
residual activity (MAPK12 (human); compound 10.0 µM): 95%
residual activity (IGF1R (human); compound 1.0 µM): 94%
residual activity (IGF1R (human); compound 10.0 µM): 88%
residual activity (EEF2K (human); compound 1.0 µM): 100%
residual activity (EEF2K (human); compound 10.0 µM): 107%
residual activity (MAPK3 (human); compound 1.0 µM): 77%
residual activity (MAPK3 (human); compound 10.0 µM): 73%
residual activity (HIPK3 (human); compound 1.0 µM): 84%
residual activity (HIPK3 (human); compound 10.0 µM): 89%
residual activity (PAK7 (human)): 89%
residual activity (PHKG1 (human); compound 1.0 µM): 109%
residual activity (PHKG1 (human); compound 10.0 µM): 106%
residual activity ([1]; compound 1.0 µM): 95%
residual activity ([1]; compound 10.0 µM): 112%
residual activity (DAPK1 (human); compound 1.0 µM): 110%
residual activity (DAPK1 (human); compound 10.0 µM): 113%
residual activity (FGFR1 (human)): 126%
residual activity (PRKAA1 or PRKAA2 (rat); compound 1.0 µM): 96%
residual activity (PRKAA1 or PRKAA2 (rat); compound 10.0 µM): 99%
residual activity (MAPKAPK2 (human); compound 1.0 µM): 88%
residual activity (MAPKAPK2 (human); compound 10.0 µM): 93%
residual activity (MAP2K2 (human); compound 1.0 µM): 104%
residual activity (MAP2K2 (human); compound 10.0 µM): 99%
residual activity (STK3 (human); compound 1.0 µM): 87%
residual activity (STK3 (human); compound 10.0 µM): 84%
residual activity (MAPK9 (human); compound 1.0 µM): 83%
residual activity (MAPK9 (human); compound 10.0 µM): 88%
residual activity (PIM3 (human)): 78%
residual activity (MELK (human); compound 1.0 µM): 87%
residual activity (MELK (human); compound 10.0 µM): 91%
residual activity (PIM1 (human)): 103%
residual activity (MARK1 (human); compound 1.0 µM): 100%
residual activity (MARK1 (human); compound 10.0 µM): 107%
residual activity (GSK3B (human); compound 1.0 µM): 93%
residual activity (GSK3B (human); compound 10.0 µM): 98%
residual activity (IKBKE (human); compound 1.0 µM): 73%
residual activity (IKBKE (human); compound 10.0 µM): 78%
residual activity (MAP3K5 (human); compound 1.0 µM): 87%
residual activity (MAP3K5 (human); compound 10.0 µM): 87%
residual activity (DYRK1A (human); compound 1.0 µM): 96%
residual activity (DYRK1A (human); compound 10.0 µM): 103%
residual activity (MAP2K6 (human); compound 1.0 µM): 95%
residual activity (MAP2K6 (human); compound 10.0 µM): 94%
residual activity (PRKACA (human); compound 1.0 µM): 73%
residual activity (PRKACA (human); compound 10.0 µM): 81%
residual activity (BRSK2 (human); compound 1.0 µM): 92%
residual activity (BRSK2 (human); compound 10.0 µM): 86%
residual activity (EPHB4 (human); compound 1.0 µM): 106%
residual activity (EPHB4 (human); compound 10.0 µM): 108%
residual activity (PIM2 (human)): 101%
residual activity (PRKCZ (human)): 96%
SMILES: NS(=O)(=O)OC[C@@H]1C[C@@H](n2ccc3c(N[C@H]4CCc5ccccc54)ncnc32)C[C@@H]1O
